Results: ChEMBL document CHEMBL5058644, “Data for DCP probe JNJ-39758979” (2022)

Columns and labels:
[1] = target: Vasoactive intestinal polypeptide receptor 1 (Homo sapiens) (UniProt P32241); assay: VIP1 (h) (VPAC1) CEREP panel; conditions: Compound concentration 1.0 uM
[2] = target: Vasopressin V1a receptor (Homo sapiens) (UniProt P37288); assay: V1A (h) CEREP panel; conditions: Compound concentration 1.0 uM
[3] = target: Casein kinase I isoform delta (Homo sapiens) (UniProt P48730); assay: CK1δ(h) Millipore kinase panel; conditions: Compound concentration 10.0 uM
[4] = Na+ channel (site 2) CEREP panel; conditions: Compound concentration 1.0 uM
[5] = target: RAC-gamma serine/threonine-protein kinase (Homo sapiens) (UniProt Q9Y243); assay: PKBγ(h) Millipore kinase panel; conditions: Compound concentration 10.0 uM
[6] = K+V channel CEREP panel; conditions: Compound concentration 1.0 uM
[7] = MT1 CEREP panel; conditions: Compound concentration 1.0 uM
[8] = target: RAC-beta serine/threonine-protein kinase (Homo sapiens) (UniProt P31751); assay: PKBβ(h) Millipore kinase panel; conditions: Compound concentration 10.0 uM
[9] = target: Nociceptin receptor (Homo sapiens) (UniProt P41146); assay: ORL1 (h) CEREP panel; conditions: Compound concentration 1.0 uM
[10] = target: Proto-oncogene tyrosine-protein kinase receptor Ret (Homo sapiens) (UniProt P07949); assay: Ret(h) Millipore kinase panel; conditions: Compound concentration 10.0 uM
[11] = target: 5-hydroxytryptamine receptor 7 (Homo sapiens) (UniProt P34969); assay: 5-HT7 (h) CEREP panel; conditions: Compound concentration 1.0 uM
Sequence of 5-hydroxytryptamine receptor 7 (Homo sapiens) (P34969 whole entry): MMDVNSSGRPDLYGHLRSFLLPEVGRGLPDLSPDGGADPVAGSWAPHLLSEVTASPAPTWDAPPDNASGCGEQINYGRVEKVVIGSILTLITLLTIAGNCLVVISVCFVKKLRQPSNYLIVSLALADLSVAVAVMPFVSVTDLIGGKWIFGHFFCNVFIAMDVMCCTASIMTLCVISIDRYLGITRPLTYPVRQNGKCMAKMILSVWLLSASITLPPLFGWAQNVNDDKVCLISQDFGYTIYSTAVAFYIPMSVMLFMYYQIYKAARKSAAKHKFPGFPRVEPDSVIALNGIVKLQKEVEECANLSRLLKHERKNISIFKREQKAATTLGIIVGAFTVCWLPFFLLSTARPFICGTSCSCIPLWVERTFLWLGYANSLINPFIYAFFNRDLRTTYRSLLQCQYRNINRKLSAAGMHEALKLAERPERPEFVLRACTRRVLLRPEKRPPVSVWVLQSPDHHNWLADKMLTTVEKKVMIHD

[12] = target: Muscarinic acetylcholine receptor M3 (Homo sapiens) (UniProt P20309); assay: M3 (h) CEREP panel; conditions: Compound concentration 1.0 uM
[13] = target: Serine/threonine-protein kinase pim-1 (Homo sapiens) (UniProt P11309); assay: Pim-1(h) Millipore kinase panel; conditions: Compound concentration 10.0 uM
[14] = target: Cholecystokinin receptor type A (Homo sapiens) (UniProt P32238); assay: CCKA (h) (CCK1) CEREP panel; conditions: Compound concentration 1.0 uM
Sequence of Cholecystokinin receptor type A (Homo sapiens) (P32238 whole entry): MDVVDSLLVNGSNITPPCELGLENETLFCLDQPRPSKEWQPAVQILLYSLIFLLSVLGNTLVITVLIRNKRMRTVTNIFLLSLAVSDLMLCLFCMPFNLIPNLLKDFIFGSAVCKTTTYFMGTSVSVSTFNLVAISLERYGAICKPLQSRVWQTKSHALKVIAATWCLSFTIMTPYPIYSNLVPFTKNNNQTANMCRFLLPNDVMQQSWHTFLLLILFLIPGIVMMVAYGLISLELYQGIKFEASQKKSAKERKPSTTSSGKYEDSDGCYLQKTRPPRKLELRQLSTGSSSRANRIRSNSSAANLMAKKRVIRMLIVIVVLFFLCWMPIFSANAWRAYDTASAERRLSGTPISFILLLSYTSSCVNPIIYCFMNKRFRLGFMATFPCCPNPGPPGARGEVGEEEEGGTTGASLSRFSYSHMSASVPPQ

[15] = target: Histamine H1 receptor (Homo sapiens) (UniProt P35367); assay: H1 (h) CEREP panel; conditions: Compound concentration 1.0 uM
[16] = target: Glycogen synthase kinase-3 alpha (Homo sapiens) (UniProt P49840); assay: GSK3α(h) Millipore kinase panel; conditions: Compound concentration 10.0 uM
[17] = target: 5-hydroxytryptamine receptor 1A (Homo sapiens) (UniProt P08908); assay: 5-HT1A (h) CEREP panel; conditions: Compound concentration 1.0 uM
[18] = target: Serine/threonine-protein kinase STK11 (Homo sapiens) (UniProt Q15831); assay: LKB1(h) Millipore kinase panel; conditions: Compound concentration 10.0 uM
[19] = target: Serine/threonine-protein kinase Sgk1 (Homo sapiens) (UniProt O00141); assay: SGK(h) Millipore kinase panel; conditions: Compound concentration 10.0 uM
[20] = target: Histamine H2 receptor (Homo sapiens) (UniProt P25021); assay: H2 (h) CEREP panel; conditions: Compound concentration 1.0 uM
Sequence of Histamine H2 receptor (Homo sapiens) (P25021 whole entry): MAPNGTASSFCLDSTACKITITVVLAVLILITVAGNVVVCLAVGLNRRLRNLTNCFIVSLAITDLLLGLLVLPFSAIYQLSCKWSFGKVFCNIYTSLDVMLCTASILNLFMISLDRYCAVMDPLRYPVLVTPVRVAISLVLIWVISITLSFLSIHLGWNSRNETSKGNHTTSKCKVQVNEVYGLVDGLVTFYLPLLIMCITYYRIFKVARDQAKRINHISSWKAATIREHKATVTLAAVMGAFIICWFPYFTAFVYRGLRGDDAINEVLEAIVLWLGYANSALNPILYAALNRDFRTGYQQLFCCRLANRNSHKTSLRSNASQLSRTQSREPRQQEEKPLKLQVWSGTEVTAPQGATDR

[21] = target: 5-hydroxytryptamine receptor 1B (Homo sapiens) (UniProt P28222); assay: 5-HT1B CEREP panel; conditions: Compound concentration 1.0 uM
[22] = target: Serine/threonine-protein kinase Nek2 (Homo sapiens) (UniProt P51955); assay: NEK2(h) Millipore kinase panel; conditions: Compound concentration 10.0 uM
[23] = target: High affinity nerve growth factor receptor (Homo sapiens) (UniProt P04629); assay: TrkA(h) Millipore kinase panel; conditions: Compound concentration 10.0 uM
Sequence of High affinity nerve growth factor receptor (Homo sapiens) (P04629 33-796 limits assumed): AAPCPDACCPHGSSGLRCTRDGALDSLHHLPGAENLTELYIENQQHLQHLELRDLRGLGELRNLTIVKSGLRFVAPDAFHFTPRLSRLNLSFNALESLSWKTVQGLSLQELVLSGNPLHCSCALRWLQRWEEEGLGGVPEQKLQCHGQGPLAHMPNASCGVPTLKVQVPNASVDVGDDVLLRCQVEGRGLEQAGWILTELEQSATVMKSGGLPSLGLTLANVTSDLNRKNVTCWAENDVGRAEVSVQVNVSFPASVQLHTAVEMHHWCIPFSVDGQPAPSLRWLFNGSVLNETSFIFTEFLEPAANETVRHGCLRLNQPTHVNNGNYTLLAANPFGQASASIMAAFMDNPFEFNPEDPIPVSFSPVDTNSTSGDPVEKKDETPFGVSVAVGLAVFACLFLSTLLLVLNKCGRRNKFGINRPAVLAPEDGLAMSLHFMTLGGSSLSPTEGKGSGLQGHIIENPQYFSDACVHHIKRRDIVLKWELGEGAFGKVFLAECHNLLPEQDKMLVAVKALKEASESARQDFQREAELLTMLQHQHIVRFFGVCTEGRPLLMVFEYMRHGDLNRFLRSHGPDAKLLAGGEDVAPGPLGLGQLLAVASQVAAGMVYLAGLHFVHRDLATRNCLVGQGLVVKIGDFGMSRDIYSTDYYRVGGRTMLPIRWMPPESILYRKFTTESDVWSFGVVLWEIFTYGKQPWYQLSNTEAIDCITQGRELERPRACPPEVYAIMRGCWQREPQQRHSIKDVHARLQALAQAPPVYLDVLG

[24] = target: Tyrosine-protein kinase ABL1 (Homo sapiens) (UniProt P00519); assay: Abl(h) Millipore kinase panel; conditions: Compound concentration 10.0 uM
Sequence of Tyrosine-protein kinase ABL1 (Homo sapiens) (P00519 whole entry): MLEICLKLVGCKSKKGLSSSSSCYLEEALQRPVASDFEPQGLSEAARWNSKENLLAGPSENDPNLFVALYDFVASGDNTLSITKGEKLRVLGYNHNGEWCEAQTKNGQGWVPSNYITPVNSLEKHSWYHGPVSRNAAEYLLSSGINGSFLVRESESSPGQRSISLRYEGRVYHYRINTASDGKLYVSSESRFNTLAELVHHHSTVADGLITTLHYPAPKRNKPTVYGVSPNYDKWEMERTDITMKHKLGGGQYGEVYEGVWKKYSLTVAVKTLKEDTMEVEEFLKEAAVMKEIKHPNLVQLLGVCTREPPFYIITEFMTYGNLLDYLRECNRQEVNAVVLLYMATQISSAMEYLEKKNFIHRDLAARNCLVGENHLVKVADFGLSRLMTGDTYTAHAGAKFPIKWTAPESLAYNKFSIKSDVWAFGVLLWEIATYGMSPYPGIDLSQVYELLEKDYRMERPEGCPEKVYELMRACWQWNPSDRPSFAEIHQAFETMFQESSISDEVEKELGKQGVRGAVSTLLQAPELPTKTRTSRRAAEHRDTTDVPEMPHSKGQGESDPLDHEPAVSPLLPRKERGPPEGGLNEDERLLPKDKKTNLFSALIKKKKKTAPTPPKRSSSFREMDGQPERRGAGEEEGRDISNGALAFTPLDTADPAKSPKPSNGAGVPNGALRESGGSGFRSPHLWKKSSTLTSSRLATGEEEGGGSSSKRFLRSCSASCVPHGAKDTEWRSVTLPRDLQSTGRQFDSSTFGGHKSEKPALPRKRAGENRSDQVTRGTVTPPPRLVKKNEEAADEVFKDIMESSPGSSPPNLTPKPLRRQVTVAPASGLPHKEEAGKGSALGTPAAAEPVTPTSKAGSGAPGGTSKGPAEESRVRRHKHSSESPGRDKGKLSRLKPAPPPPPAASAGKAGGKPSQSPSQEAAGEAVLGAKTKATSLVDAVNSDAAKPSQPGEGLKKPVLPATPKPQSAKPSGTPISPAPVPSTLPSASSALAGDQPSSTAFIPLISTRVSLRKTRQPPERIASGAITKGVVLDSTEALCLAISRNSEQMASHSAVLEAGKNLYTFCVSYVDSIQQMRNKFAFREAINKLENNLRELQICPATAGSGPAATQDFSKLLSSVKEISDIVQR

Rattus norvegicus = organism: Rattus norvegicus; assay: AMPK(r) Millipore kinase panel; conditions: Compound concentration 10.0 uM
[25] = target: Proto-oncogene tyrosine-protein kinase Src (Homo sapiens) (UniProt P12931); assay: cSRC(h) Millipore kinase panel; conditions: Compound concentration 10.0 uM
[26] = target: Mitogen-activated protein kinase kinase kinase 9 (Homo sapiens) (UniProt P80192); assay: MLK1(h) Millipore kinase panel; conditions: Compound concentration 10.0 uM
[27] = target: Tyrosine-protein kinase SYK (Homo sapiens) (UniProt P43405); assay: Syk(h) Millipore kinase panel; conditions: Compound concentration 10.0 uM
[28] = target: Neuromedin-K receptor (Homo sapiens) (UniProt P29371); assay: NK3 (h) CEREP panel; conditions: Compound concentration 1.0 uM
[29] = target: Neuropeptide Y receptor type 2 (Homo sapiens) (UniProt P49146); assay: Y2 (h) CEREP panel; conditions: Compound concentration 1.0 uM
[30] = target: 5-hydroxytryptamine receptor 2A (Homo sapiens) (UniProt P28223); assay: 5-HT2A (h) CEREP panel; conditions: Compound concentration 1.0 uM
[31] = BZD (central) CEREP panel; conditions: Compound concentration 1.0 uM
[32] = target: cAMP-dependent protein kinase catalytic subunit alpha (Homo sapiens) (UniProt P17612); assay: PKA(h) Millipore kinase panel; conditions: Compound concentration 10.0 uM
[33] = GABA (non-selective) CEREP panel; conditions: Compound concentration 1.0 uM
[34] = target: C-X-C chemokine receptor type 2 (Homo sapiens) (UniProt P25025); assay: IL-8B (h) (CXCR2) CEREP panel; conditions: Compound concentration 1.0 uM
[35] = target: Adenosine receptor A1 (Homo sapiens) (UniProt P30542); assay: A1 (h) CEREP panel; conditions: Compound concentration 1.0 uM
[36] = target: Adenosine receptor A3 (Homo sapiens) (UniProt P0DMS8); assay: A3 (h) CEREP panel; conditions: Compound concentration 1.0 uM
[37] = target: Neuropeptide Y receptor type 1 (Homo sapiens) (UniProt P25929); assay: Y1 (h) CEREP panel; conditions: Compound concentration 1.0 uM
[38] = target: Tyrosine-protein kinase JAK2 (Homo sapiens) (UniProt O60674); assay: JAK2(h) Millipore kinase panel; conditions: Compound concentration 10.0 uM
[39] = target: Muscarinic acetylcholine receptor M2 (Homo sapiens) (UniProt P08172); assay: M2 (h) CEREP panel; conditions: Compound concentration 1.0 uM
Sequence of Muscarinic acetylcholine receptor M2 (Homo sapiens) (P08172 whole entry): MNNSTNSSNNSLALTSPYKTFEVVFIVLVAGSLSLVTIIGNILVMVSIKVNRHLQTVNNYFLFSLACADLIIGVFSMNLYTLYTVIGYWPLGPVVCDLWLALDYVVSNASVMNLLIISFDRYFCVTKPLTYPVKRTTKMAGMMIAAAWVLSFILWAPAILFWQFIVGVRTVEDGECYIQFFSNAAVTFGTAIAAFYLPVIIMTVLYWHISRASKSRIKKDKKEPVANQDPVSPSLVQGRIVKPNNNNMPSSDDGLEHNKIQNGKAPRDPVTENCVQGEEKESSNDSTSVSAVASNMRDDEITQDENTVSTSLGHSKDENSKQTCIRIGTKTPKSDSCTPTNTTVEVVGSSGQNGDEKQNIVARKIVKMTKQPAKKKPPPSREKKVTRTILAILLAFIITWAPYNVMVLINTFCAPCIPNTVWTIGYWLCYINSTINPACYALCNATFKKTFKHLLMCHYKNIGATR

[40] = target: Delta-type opioid receptor (Homo sapiens) (UniProt P41143); assay: delta (h) CEREP panel; conditions: Compound concentration 1.0 uM
[41] = Cl- channel CEREP panel; conditions: Compound concentration 1.0 uM
[42] = target: D(1A) dopamine receptor (Homo sapiens) (UniProt P21728); assay: D1 (h) CEREP panel; conditions: Compound concentration 1.0 uM
[43] = target: Mitogen-activated protein kinase 8 (Homo sapiens) (UniProt P45983); assay: JNK1α1(h) Millipore kinase panel; conditions: Compound concentration 10.0 uM
[44] = SK+Ca channel CEREP panel; conditions: Compound concentration 1.0 uM
[45] = target: Proto-oncogene tyrosine-protein kinase ROS (Homo sapiens) (UniProt P08922); assay: Ros(h) Millipore kinase panel; conditions: Compound concentration 10.0 uM
[46] = target: Tyrosine-protein kinase CSK (Homo sapiens) (UniProt P41240); assay: CSK(h) Millipore kinase panel; conditions: Compound concentration 10.0 uM
[47] = target: Endothelin-1 receptor (Homo sapiens) (UniProt P25101); assay: ETA (h) CEREP panel; conditions: Compound concentration 1.0 uM
[48] = target: Death-associated protein kinase 1 (Homo sapiens) (UniProt P53355); assay: DAPK1(h) Millipore kinase panel; conditions: Compound concentration 10.0 uM
Sequence of Death-associated protein kinase 1 (Homo sapiens) (P53355 whole entry, looked up): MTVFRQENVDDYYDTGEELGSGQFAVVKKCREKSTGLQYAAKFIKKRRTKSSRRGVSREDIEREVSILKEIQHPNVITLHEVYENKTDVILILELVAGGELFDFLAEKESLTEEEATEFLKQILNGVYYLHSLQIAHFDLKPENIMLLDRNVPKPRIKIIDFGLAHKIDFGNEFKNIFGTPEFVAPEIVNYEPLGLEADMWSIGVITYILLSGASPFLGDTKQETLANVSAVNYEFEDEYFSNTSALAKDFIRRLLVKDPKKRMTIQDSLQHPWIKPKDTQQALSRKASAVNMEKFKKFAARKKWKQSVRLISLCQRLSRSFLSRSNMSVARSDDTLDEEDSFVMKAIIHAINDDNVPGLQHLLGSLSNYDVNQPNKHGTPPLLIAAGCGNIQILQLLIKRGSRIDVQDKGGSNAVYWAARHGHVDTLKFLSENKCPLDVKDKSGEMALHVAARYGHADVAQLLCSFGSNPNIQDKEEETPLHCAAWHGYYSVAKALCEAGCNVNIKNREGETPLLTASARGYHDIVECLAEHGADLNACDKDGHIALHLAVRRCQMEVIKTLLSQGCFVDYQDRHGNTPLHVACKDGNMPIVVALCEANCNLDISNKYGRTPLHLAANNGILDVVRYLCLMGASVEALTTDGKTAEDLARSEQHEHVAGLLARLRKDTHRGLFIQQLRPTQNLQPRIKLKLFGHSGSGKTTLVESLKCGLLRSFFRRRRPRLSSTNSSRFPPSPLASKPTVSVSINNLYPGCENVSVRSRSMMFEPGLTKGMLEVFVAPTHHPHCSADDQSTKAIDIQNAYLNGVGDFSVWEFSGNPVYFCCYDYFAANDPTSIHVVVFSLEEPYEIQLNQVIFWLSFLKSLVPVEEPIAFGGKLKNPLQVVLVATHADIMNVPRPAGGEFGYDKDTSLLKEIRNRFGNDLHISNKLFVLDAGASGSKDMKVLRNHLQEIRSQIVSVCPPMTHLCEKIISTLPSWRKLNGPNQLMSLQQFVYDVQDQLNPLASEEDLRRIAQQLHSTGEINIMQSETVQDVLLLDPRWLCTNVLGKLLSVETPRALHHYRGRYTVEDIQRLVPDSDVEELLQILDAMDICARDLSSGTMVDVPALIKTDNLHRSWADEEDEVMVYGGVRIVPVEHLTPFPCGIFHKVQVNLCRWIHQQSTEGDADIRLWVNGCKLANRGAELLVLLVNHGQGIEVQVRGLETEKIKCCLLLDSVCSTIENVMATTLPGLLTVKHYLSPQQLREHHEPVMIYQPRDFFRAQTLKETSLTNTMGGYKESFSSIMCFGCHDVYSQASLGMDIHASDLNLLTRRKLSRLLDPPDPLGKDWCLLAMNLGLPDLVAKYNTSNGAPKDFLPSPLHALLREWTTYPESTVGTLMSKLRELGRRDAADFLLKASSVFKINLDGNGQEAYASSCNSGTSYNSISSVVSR

[49] = target: Testis-specific serine/threonine-protein kinase 1 (Homo sapiens) (UniProt Q9BXA7); assay: TSSK1(h) Millipore kinase panel; conditions: Compound concentration 10.0 uM

- inhibition [1]: < 10%
- inhibition [2]: < 10%
- inhibition [3]: 1%
- inhibition [4]: < 10%
- inhibition [5]: -3%
- inhibition [6]: < 10%
- inhibition [7]: < 10%
- inhibition [8]: -5%
- inhibition [9]: < 10%
- inhibition [10]: -6%
- inhibition [11]: < 10%
- inhibition [12]: 64%
- inhibition [13]: 3%
- inhibition [14]: < 10%
- inhibition [15]: < 10%
- inhibition [16]: 8%
- inhibition [17]: < 10%
- inhibition [18]: 0%
- inhibition [19]: 7%
- inhibition [20]: < 10%
- inhibition [21]: < 10%
- inhibition [22]: -10%
- inhibition [23]: 13%
- inhibition [24]: -2%
- inhibition (Rattus norvegicus): 1%
- inhibition [25]: -5%
- inhibition [26]: 6%
- inhibition [27]: 3%
- inhibition [28]: < 10%
- inhibition [29]: < 10%
- inhibition [30]: < 10%
- inhibition [31]: < 10%
- inhibition [32]: -2%
- inhibition [33]: < 10%
- inhibition [34]: < 10%
- inhibition [35]: < 10%
- inhibition [36]: < 10%
- inhibition [37]: < 10%
- inhibition [38]: -7%
- inhibition [39]: < 10%
- inhibition [40]: < 10%
- inhibition [41]: < 10%
- inhibition [42]: < 10%
- inhibition [43]: 10%
- inhibition [44]: < 10%
- inhibition [45]: 6%
- inhibition [46]: -9%
- inhibition [47]: 15%
- inhibition [49]: 16%
Structure (SMILES): CC(C)c1cc(N2CC[C@@H](N)C2)nc(N)n1
- inhibition [48]: -3%
